Test results reported in paper PMC5074247 (Biopharmaceutics & Drug Disposition, 2016).
Where two headings read alike, the source gives them in different places.

How the values were obtained:
[1] = cited from earlier work
[2] = cited from earlier work; remark: listed apart in the source
[3] = ref manufacturer's interview form; cited from earlier work
DPP‐4 = conditions: against DPP‐4 ref 2; cited from earlier work
[4] = ZDF rat model; compared with sitagliptin ref 39; cited from earlier work
[5] = intravenously administered to rats at doses above 3 mg/kg ref 23; cited from earlier work
[6] = format: in vivo, Sprague–Dawley rats; conditions: oral 1 mg/kg [^14C]teneligliptin, SD rats

In the case of `Cn1c(=O)cc(N2CCC[C@@H](N)C2)n(Cc2ccccc2C#N)c1=O` [Alogliptin], the V ss ([1]; intravenous administration to rats ref 19) is listed as 3.5 19 l/kg, the “K p of radioactivity” value ([2]; Heart, oral 3 mg/kg, 4 h, rats ref 22) is listed as 2.36 and the “K p of radioactivity” value ([2]; Kidney, oral 3 mg/kg, 4 h, rats ref 22) is listed as 29.7. The “K p of radioactivity” value ([2]; Liver, oral 3 mg/kg, 4 h, rats ref 22) was 17.3, the “K p of radioactivity” value ([2]; Lung, oral 3 mg/kg, 4 h, rats ref 22) was 8.6 and the “K p of radioactivity” value ([2]; Pancreas, oral 3 mg/kg, 4 h, rats ref 22) was 4.94. The pKa [3] was 8.5.
For `Cc1cc2ncc(C(=O)NCC(C)(C)NCC(=O)N3CCC[C@H]3C#N)cn2n1.Cl` [Anagliptin, N‐[2‐({2‐[(2S)‐2‐cyanopyrrolidin‐1‐yl]‐2‐oxoethyl}amino)‐2‐methylpropyl]‐2‐methylpyrazolo[1,5‐a]pyrimidine‐6‐carboxamide hydrochloride], the V ss ([1]; intravenous administration to rats ref 2) is given as 0.68 L/kg, the IC50 (DPP‐4) is given as 3.8 nM and the “K p of radioactivity” value ([2]; Heart, oral 10 mg/kg, 6 h, rats ref 21) is given as 0.74. For the same compound, the “K p of radioactivity” value ([2]; Kidney, oral 10 mg/kg, 6 h, rats ref 21, 10 mg/kg) was 6.71, the “K p of radioactivity” value ([2]; Liver, oral 10 mg/kg, 6 h, rats ref 21) was 4.36 and the “K p of radioactivity” value ([2]; Lung, oral 10 mg/kg, 6 h, rats ref 21) was 1.50. For the same compound, the “K p of radioactivity” value ([2]; Pancreas, oral 10 mg/kg, 6 h, rats ref 21) was 0.81 and the pKa [3] was 6.7.
For `CC#CCn1c(N2CCC[C@@H](N)C2)nc2c1c(=O)n(Cc1nc(C)c3ccccc3n1)c(=O)n2C` [Linagliptin, 8‐(3‐I‐aminopiperidin‐1‐yl)‐7‐but‐2‐ynyl‐3‐methyl‐1‐(4‐methyl‐quinazolin‐2‐ylmethyl)‐3,7‐dihydropurine‐2,6‐dione], the V ss ([1]; intravenous administration to rats ref 23) is listed as 50.3 L/kg, the “K p of radioactivity” value ([2]; Heart, oral 2 mg/kg, 4 h, rats ref 23) is listed as 4.78 and the “K p of radioactivity” value ([2]; Kidney, oral 2 mg/kg, 4 h, rats ref 23, 2 mg/kg) is listed as 113. For the same compound, the “K p of radioactivity” value ([2]; Kidney, oral 2 mg/kg, 4 h, rats ref 23, listed as linagliptin, 2 mg/kg) was “around 100”, the “K p of radioactivity” value ([2]; Liver, oral 2 mg/kg, 4 h, rats ref 23) was 42.3 and the “K p of radioactivity” value ([2]; Lung, oral 2 mg/kg, 4 h, rats ref 23) was 11.1. For the same compound, the “acetylcholine‐induced vascular relaxation” value [4] was “significantly stronger” and the tissue distribution [5] was “non‐linear tissue distribution”.
With `Cc1cc(N2CCN(C3CNC(C(=O)N4CC[S+]([O-])C4)C3)CC2)n(-c2ccccc2)n1` (stereo not shown) [M1] the “metabolite detection in plasma” value ([6]; plasma, 0.5 h) was “detected at low levels”.
With `O=C(C1CC(N2CCN(c3cc(CO)nn3-c3ccccc3)CC2)CN1)N1CCSC1` (stereo not shown) [M4] the “metabolite detection in kidney” value ([6]; kidney, 0.5, 24 and 72 h) was “detected in trace concentrations”.
In the case of `N#C[C@@H]1C[C@@H]2C[C@@H]2N1C(=O)[C@@H](N)C12CC3CC(CC(O)(C3)C1)C2` [Saxagliptin], the V ss ([1]; intravenous administration to rats ref 20) is listed as 5.2 20 l/kg and the pKa [3] is listed as 7.3.
In the case of `N[C@@H](CC(=O)N1CCn2c(nnc2C(F)(F)F)C1)Cc1cc(F)c(F)cc1F` [Sitagliptin, (2R)‐4‐Oxo‐4‐[3‐(trifluoromethyl)‐5,6‐dihydro[1,2,4]‐triazolo[4,3‐a]pyrazin‐7(8H)‐yl]‐1‐(2,4,5‐trifluorophenyl)butan‐2‐amine], the V ss ([1]; intravenous administration to rats ref 25) is given as 8.8 25 l/kg, the “K p of radioactivity” value ([2]; Heart, oral 5 mg/kg, 4 h, rats ref 25) is given as 2.73 and the “K p of radioactivity” value ([2]; Kidney, oral 5 mg/kg, 4 h, rats ref 25) is given as 14.7. The “K p of radioactivity” value ([2]; Liver, oral 5 mg/kg, 4 h, rats ref 25) was 22.0, the “K p of radioactivity” value ([2]; Lung, oral 5 mg/kg, 4 h, rats ref 25) was 9.09 and the “K p of radioactivity” value ([2]; Pancreas, oral 5 mg/kg, 4 h, rats ref 25) was 5.69. The pKa [3] was 7.7.
For `N#C[C@@H]1CCCN1C(=O)CNC12CC3CC(CC(O)(C3)C1)C2` [Vildagliptin, 1‐[[(3‐Hydroxy‐1‐adamantyl)amino]acetyl]‐2‐cyano‐(S)‐pyrrolidine], the “K p of radioactivity” value ([2]; Heart, oral 100 mg/kg, 4 h, rats ref 26) is given as 1.48, the “K p of radioactivity” value ([2]; Kidney, oral 100 mg/kg, 4 h, rats ref 26) is given as 13.4 and the “K p of radioactivity” value ([2]; Liver, oral 100 mg/kg, 4 h, rats ref 26) is given as 13.6. For the same compound, the “K p of radioactivity” value ([2]; Lung, oral 100 mg/kg, 4 h, rats ref 26) was 2.60, the “K p of radioactivity” value ([2]; Pancreas, oral 100 mg/kg, 4 h, rats ref 26) was 3.29 and the pKa [3] was 7.6.
